Test results published in patent US7208628B2, “Compositions and methods for the treatment of hepatitis C virus infection” (Kansas State University Research Foundation, priority 2002, dated 2007).

Target: binding of HCV-E2 to CD81 on Molt4 T cells (Hepacivirus hominis (Hepatitis C virus), UniProt P27958)
Test: HCV-E2/CD81 binding assay on Molt4 T cells, detection with anti-E2 mAb 6F6 and flow cytometry
Design: species or system human
Settings: for ability to inhibit the HCV-E2 binding to CD81, relative activity in words: structure-activity comparison of linker, side chain and ester against the valine benzyl ester I45DC AL-2-140
Text: Development of a Unique HCV-E2/CD81 Binding Assay. […] The binding of HCV-E2 to CD81 has been reported by several groups (see, e.g. Allander, T., et al., “Hepatitis C virus envelope protein E2 binds to CD81 of tamarins” Virology 277:358–367, 2000). Often those studies involved interactions of purified recombinant proteins. We sought to confirm published findings and to test the ability of HCV-E2 to bind to CD81 expressed on living T cells. Various concentrations of recombinant HCV-E2 (Ala 384 to Lys 715 of the HCV polyprotein produced in CHO cells; Austral Biologicals) was incubated with Molt4 T cells and binding of HCV-E2 to the cells was detected with the anti-E2 monoclonal antibody 6F6 (Austral Biologicals) followed by flow cytometry (FIG. 1). HCV-E2 binding to Molt4 T cells is concentration dependent and easily detectable at concentrations as low as 0.3 μg/mL. This binding assay differs from the assay published by Wünschmann in that the published assay used whole virus and not recombinant […] peptide. (Wünschmann, et al, “Characterization of Hepatitis C Virus (HCV) and HCV E2 Interactions with CD81 and the Low-Density Lipoprotein Receptor” J. Virology 74:10055–10062, 2000).
Effect of I45DCs on HCV-E2 binding to CD81 on T cells. […] Binding was measured by using the novel and sensitive method of the present invention for the detection of binding between the HCV envelope protein E2 and its cellular receptor CD81 on living human T cells. This experimental approach was employed in the evaluation of a series of newly synthesized I45DCs.
HCV-E2 was pre-incubated with or without […] of the indicated compound for 30 minutes at 37° C. prior to addition of HCV-E2 to Molt4 cells and detection as described above. […] The approximate EC50 of 19 was determined by conducting the same type of experiment in the presence of a 1:2 titration of 19 from […] (FIG. 5).

Chain of binding of HCV-E2 to CD81 on Molt4 T cells (P27958 384-715): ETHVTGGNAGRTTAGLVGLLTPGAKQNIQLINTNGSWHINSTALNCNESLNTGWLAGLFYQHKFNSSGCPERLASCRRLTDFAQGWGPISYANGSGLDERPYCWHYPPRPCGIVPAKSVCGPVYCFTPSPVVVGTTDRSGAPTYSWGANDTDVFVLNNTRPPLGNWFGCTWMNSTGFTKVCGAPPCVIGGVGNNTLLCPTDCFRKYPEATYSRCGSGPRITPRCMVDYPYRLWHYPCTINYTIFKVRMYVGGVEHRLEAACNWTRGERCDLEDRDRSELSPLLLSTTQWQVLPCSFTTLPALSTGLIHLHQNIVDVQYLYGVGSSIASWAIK
Chain of binding of HCV-E2 to CD81 on Molt4 T cells (P60033 whole entry, further chain): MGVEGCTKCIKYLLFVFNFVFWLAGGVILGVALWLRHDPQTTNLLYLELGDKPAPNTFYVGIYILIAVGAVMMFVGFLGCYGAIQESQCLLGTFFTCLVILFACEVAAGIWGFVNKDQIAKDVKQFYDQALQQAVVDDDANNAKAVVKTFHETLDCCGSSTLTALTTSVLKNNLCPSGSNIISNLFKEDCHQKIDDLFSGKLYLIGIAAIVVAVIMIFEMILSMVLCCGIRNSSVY

## CCN(CCN(CC)C(=O)c1nc[nH]c1C(=O)N[C@H](C(=O)OCc1ccccc1)C(C)C)C(=O)c1nc[nH]c1C(=O)N[C@H](C(=O)OCc1ccccc1)C(C)C [Compound 19]
CD81 expressed on human T cells, 1:2 titration of compound, FIG. 5, read-out: approximate IC50 value for blocking binding of HCV-E2 to CD81
  IC50: ~45 µM
HCV-E2 pre-incubated with 500 mM compound for 30 minutes at 37° C. before addition to Molt4 cells
  bioactivity in the HCV-E2 binding assay: bioactivity in the sub-millimolar range
  ability to inhibit the HCV-E2 binding to CD81, relative activity in words: most active compound to date
Listed as AL-2-140
  ability to inhibit the HCV-E2 binding to CD81, relative activity in words: most active
